Assay results: patent US10409869B2, “(R)- and (S)-1-(3-(3-N,N-dimethylaminocarbonyl)phenoxyl-4-nitrophenyl)-1-ethyl-N,N'-bis (ethylene)phosphoramidate, compositions and methods for their use and preparation” (OBI Pharma, Inc., priority 2015, dated 2019)

Experiment: Hematology in monkeys, 2 mg/kg 30-min IV infusion
Format: in vivo, Cynomolgus monkeys
Protocol: TH 3423 and TH 3424 were tested in […] naïve monkeys (1 male and one female for each compound at 2 mg/kg) with 30-min intravenous infusion, TK sampling: on Day 1 and Day 15: 0.25, 0.5, 0.75, 1 and 2 hr post infusion initiation. Serum chemistry and hematology: pre-dose (Day 1), day 5, day 8 (pre-dose), day 15 (pre-dose), day 22 and day 28. Clinical observation: Daily during the study, total 35 days. Food consumption: Daily during the study, total 35 days. Bodyweight measurement: Twice weekly for five weeks.

SMILES: C[C@@H](OP(=O)(N1CC1)N1CC1)c1ccc([N+](=O)[O-])c(Oc2cccc(C(=O)N(C)C)c2)c1 (single isomer, unassigned) [TH3423]
- % BASO (female, Day 1 (pre-dose)): 0.0%
- % EOS (female, Day 1 (pre-dose)): 2.3%
- % MONO (female, Day 1 (pre-dose)): 4.8%
- % NEUT (female, Day 1 (pre-dose)): 47.9%
- HCT (female, Day 1 (pre-dose)): 35%
- HGB (female, Day 1 (pre-dose)): 112 g/L
- LYM (female, Day 1 (pre-dose)): 45%
- MCH (female, Day 1 (pre-dose)): 24 pg
- MCHC (female, Day 1 (pre-dose)): 320 g/L
- MCV (female, Day 1 (pre-dose)): 74.9 fL
- MPV (female, Day 1 (pre-dose)): 10.6 fL
- PCT (female, Day 1 (pre-dose)): 0.338%
- PDW (female, Day 1 (pre-dose)): 14.8
- PLT (female, Day 1 (pre-dose)): 3.18e+11 L⁻¹
- RBC (female, Day 1 (pre-dose)): 4.67e+12 L⁻¹
- RDW-CV (female, Day 1 (pre-dose)): 11.8%
- RDW-SD (female, Day 1 (pre-dose)): 37.2 fL
- WBC (female, Day 1 (pre-dose)): 6.7e+09 L⁻¹
- abs_basos (female, Day 1 (pre-dose)): 0 L⁻¹
- abs_eos (female, Day 1 (pre-dose)): 1.5e+08 L⁻¹
- abs_lymphs (female, Day 1 (pre-dose)): 3.02e+09 L⁻¹
- abs_monos (female, Day 1 (pre-dose)): 3.2e+08 L⁻¹
- abs_neuts (female, Day 1 (pre-dose)): 3.21e+09 L⁻¹
- % BASO (female, Day 8 (pre-dose)): 0.20%
- % EOS (female, Day 8 (pre-dose)): 2.30%
- % MONO (female, Day 8 (pre-dose)): 0.00%
- % NEUT (female, Day 8 (pre-dose)): 61.90%
- HCT (female, Day 8 (pre-dose)): 39.80%
- HGB (female, Day 8 (pre-dose)): 128.00 g/L
- LYM (female, Day 8 (pre-dose)): 35.60%
- MCH (female, Day 8 (pre-dose)): 24.60 pg
- MCHC (female, Day 8 (pre-dose)): 322.00 g/L
- MCV (female, Day 8 (pre-dose)): 76.30 fL
- MPV (female, Day 8 (pre-dose)): 9.60 fL
- PCT (female, Day 8 (pre-dose)): 0.67%
- PDW (female, Day 8 (pre-dose)): 15.40
- PLT (female, Day 8 (pre-dose)): 6.99e+11 L⁻¹
- RBC (female, Day 8 (pre-dose)): 5.21e+12 L⁻¹
- RDW-CV (female, Day 8 (pre-dose)): 12.30%
- RDW-SD (female, Day 8 (pre-dose)): 39.50 fL
- WBC (female, Day 8 (pre-dose)): 1.035e+10 L⁻¹
- abs_basos (female, Day 8 (pre-dose)): 2e+07 L⁻¹
- abs_eos (female, Day 8 (pre-dose)): 2.5e+08 L⁻¹
- abs_lymphs (female, Day 8 (pre-dose)): 3.68e+09 L⁻¹
- abs_monos (female, Day 8 (pre-dose)): 0 L⁻¹
- abs_neuts (female, Day 8 (pre-dose)): 6.4e+09 L⁻¹
- % BASO (female, Day 15 (pre-dose)): 0.10%
- % EOS (female, Day 15 (pre-dose)): 2.70%
- % MONO (female, Day 15 (pre-dose)): 6.30%
- % NEUT (female, Day 15 (pre-dose)): 63.0%
- HCT (female, Day 15 (pre-dose)): 33.9%
- HGB (female, Day 15 (pre-dose)): 115 g/L
- LYM (female, Day 15 (pre-dose)): 27.90%
- MCH (female, Day 15 (pre-dose)): 24.0 pg
- MCHC (female, Day 15 (pre-dose)): 339 g/L
- MCV (female, Day 15 (pre-dose)): 70.6 fL
- MPV (female, Day 15 (pre-dose)): 8.70 fL
- PCT (female, Day 15 (pre-dose)): 0.46%
- PDW (female, Day 15 (pre-dose)): 15.10
- PLT (female, Day 15 (pre-dose)): 5.33e+11 L⁻¹
- RBC (female, Day 15 (pre-dose)): 4.8e+12 L⁻¹
- RDW-CV (female, Day 15 (pre-dose)): 10.9%
- RDW-SD (female, Day 15 (pre-dose)): 32.3 fL
- WBC (female, Day 15 (pre-dose)): 9.56e+09 L⁻¹
- abs_basos (female, Day 15 (pre-dose)): 1e+07 L⁻¹
- abs_eos (female, Day 15 (pre-dose)): 2.6e+08 L⁻¹
- abs_lymphs (female, Day 15 (pre-dose)): 2.67e+09 L⁻¹
- abs_monos (female, Day 15 (pre-dose)): 6e+08 L⁻¹
- abs_neuts (female, Day 15 (pre-dose)): 6.02e+09 L⁻¹
- % BASO (male, Day 1 (pre-dose)): 0.0%
- % EOS (male, Day 1 (pre-dose)): 2.4%
- % MONO (male, Day 1 (pre-dose)): 5.5%
- % NEUT (male, Day 1 (pre-dose)): 55.4%
- HCT (male, Day 1 (pre-dose)): 40.8%
- HGB (male, Day 1 (pre-dose)): 132 g/L
- LYM (male, Day 1 (pre-dose)): 36.7%
- MCH (male, Day 1 (pre-dose)): 25.4 pg
- MCHC (male, Day 1 (pre-dose)): 324 g/L
- MCV (male, Day 1 (pre-dose)): 78.3 fL
- MPV (male, Day 1 (pre-dose)): 10.2 fL
- PCT (male, Day 1 (pre-dose)): 0.365%
- PDW (male, Day 1 (pre-dose)): 15.1
- PLT (male, Day 1 (pre-dose)): 3.58e+11 L⁻¹
- RBC (male, Day 1 (pre-dose)): 5.2e+12 L⁻¹
- RDW-CV (male, Day 1 (pre-dose)): 11.6%
- RDW-SD (male, Day 1 (pre-dose)): 38.2 fL
- WBC (male, Day 1 (pre-dose)): 5.33e+09 L⁻¹
- abs_basos (male, Day 1 (pre-dose)): 0 L⁻¹
- abs_eos (male, Day 1 (pre-dose)): 1.3e+08 L⁻¹
- abs_lymphs (male, Day 1 (pre-dose)): 1.95e+09 L⁻¹
- abs_monos (male, Day 1 (pre-dose)): 2.9e+08 L⁻¹
- abs_neuts (male, Day 1 (pre-dose)): 2.96e+09 L⁻¹
- % BASO (male, Day 8 (pre-dose)): 0.7%
- % EOS (male, Day 8 (pre-dose)): 3.0%
- % MONO (male, Day 8 (pre-dose)): 0.0%
- % NEUT (male, Day 8 (pre-dose)): 80.9%
- HCT (male, Day 8 (pre-dose)): 44.70%
- HGB (male, Day 8 (pre-dose)): 146.00 g/L
- LYM (male, Day 8 (pre-dose)): 15.4%
- MCH (male, Day 8 (pre-dose)): 24.90 pg
- MCHC (male, Day 8 (pre-dose)): 327.00 g/L
- MCV (male, Day 8 (pre-dose)): 76.20 fL
- MPV (male, Day 8 (pre-dose)): 10.60 fL
- PCT (male, Day 8 (pre-dose)): 0.52%
- PDW (male, Day 8 (pre-dose)): 15.70
- PLT (male, Day 8 (pre-dose)): 4.9e+11 L⁻¹
- RBC (male, Day 8 (pre-dose)): 5.86e+12 L⁻¹
- RDW-CV (male, Day 8 (pre-dose)): 11.90%
- RDW-SD (male, Day 8 (pre-dose)): 38.00 fL
- WBC (male, Day 8 (pre-dose)): 1.166e+10 L⁻¹
- abs_basos (male, Day 8 (pre-dose)): 8e+07 L⁻¹
- abs_eos (male, Day 8 (pre-dose)): 3.5e+08 L⁻¹
- abs_lymphs (male, Day 8 (pre-dose)): 1.79e+09 L⁻¹
- abs_monos (male, Day 8 (pre-dose)): 0 L⁻¹
- abs_neuts (male, Day 8 (pre-dose)): 9.44e+09 L⁻¹
